Source: ChEMBL document CHEMBL2439957, “Design and synthesis of novel pyrimidone analogues as HIV-1 integrase inhibitors” (Bioorg Med Chem Lett, 2013)

Experiments:
[1] = biological target: T1, Human immunodeficiency virus type 1 integrase (Human immunodeficiency virus 1, UniProt Q7ZJM1); experiment: Inhibition of Human immunodeficiency virus 1 integrase strand transfer activity after 30 mins by polyacrylamide gel electrophoresis
[2] = biological target: T1, Human immunodeficiency virus type 1 integrase; experiment: Inhibition of Human immunodeficiency virus 1 integrase 3'-processing activity after 30 mins by polyacrylamide gel electrophoresis

T1 sequence (Q7ZJM1 whole entry): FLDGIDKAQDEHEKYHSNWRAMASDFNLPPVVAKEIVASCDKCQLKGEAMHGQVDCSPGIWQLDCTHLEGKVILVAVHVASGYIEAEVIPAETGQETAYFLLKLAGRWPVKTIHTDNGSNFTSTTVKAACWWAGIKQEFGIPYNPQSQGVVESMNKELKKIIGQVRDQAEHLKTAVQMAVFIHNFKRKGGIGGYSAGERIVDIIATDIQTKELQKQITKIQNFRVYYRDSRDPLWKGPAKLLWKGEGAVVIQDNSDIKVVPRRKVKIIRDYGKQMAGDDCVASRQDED

| Structure (SMILES) | IC50 [1] [µM] | IC50 [2] [µM] |
| --- | --- | --- |
| CC(C)(C)c1nc(C(=O)NCc2ccc(F)cc2)c(O)c(=O)n1CCCNC(=O)c1ccccc1 | 13 | > 20 |
| CC(C)(C)c1nc(C(=O)NCc2ccc(F)cc2)c(O)c(=O)n1CCCNS(=O)(=O)C1CC1 [listing 1 of 2 here] | 20 | – |
| CC(C)(C)c1nc(C(=O)NCc2ccc(F)cc2)c(O)c(=O)n1CCCNC(=O)c1cccs1 | 14 | > 20 |
| CC(C)(C)c1nc(C(=O)NCc2ccc(F)cc2)c(O)c(=O)n1CCCNC(=O)c1ccco1 | 3 | > 20 |
| Cn1cnc(S(=O)(=O)NCCCn2c(C(C)(C)C)nc(C(=O)NCc3ccc(F)cc3)c(O)c2=O)c1 | 12 | > 20 |
| CC(=O)Nc1ccc(S(=O)(=O)NCCCn2c(C(C)(C)C)nc(C(=O)NCc3ccc(F)cc3)c(O)c2=O)cc1 | 8 | > 20 |
| CC(C)(C)c1nc(C(=O)NCc2ccc(F)cc2)c(O)c(=O)n1CCCNS(=O)(=O)c1ccccc1 | 20 | > 20 |
| CC(C)(C)c1nc(C(=O)NCc2ccc(F)cc2)c(O)c(=O)n1CCCNS(=O)(=O)C1CC1 [listing 2 of 2 here] | 9 | > 20 |
| CC(C)(C)c1nc(O)c(O)c(C(=O)NCc2ccc(F)cc2)n1 | 2 | > 20 |

Continued, values first:

| IC50 [1] [µM] | IC50 [2] [µM] | Structure (SMILES) |
| --- | --- | --- |
| > 20 | > 20 | CC(C)(C)OC(=O)NCCCn1c(C(C)(C)C)nc(C(=O)NCc2ccc(F)cc2)c(O)c1=O |
| > 20 | > 20 | CC(C)(C)c1nc(C(=O)NCc2ccc(F)cc2)c(O)c(=O)n1CCCN |
| 3 | – | CC(C)(C)c1nc(C(=O)NCc2ccc(F)cc2)c(O)c(=O)n1CCCNC(=O)C1CC1 [listing 1 of 2 here] |
| 2 | > 20 | CC(=O)NCCCn1c(C(C)(C)C)nc(C(=O)NCc2ccc(F)cc2)c(O)c1=O |
| 6 | – | CCC(=O)NCCCn1c(C(C)(C)C)nc(C(=O)NCc2ccc(F)cc2)c(O)c1=O [listing 1 of 2 here] |
| 20 | > 20 | CCCC(=O)NCCCn1c(C(C)(C)C)nc(C(=O)NCc2ccc(F)cc2)c(O)c1=O |
| 7 | > 20 | CCS(=O)(=O)NCCCn1c(C(C)(C)C)nc(C(=O)NCc2ccc(F)cc2)c(O)c1=O |
| 20 | > 20 | CC(C)(C)c1nc(C(=O)NCc2ccc(F)cc2)c(O)c(=O)n1CCCNC(=O)Cc1cccs1 |
| 20 | > 20 | CC(C)(C)C(=O)NCCCn1c(C(C)(C)C)nc(C(=O)NCc2ccc(F)cc2)c(O)c1=O |
| 5 | > 20 | CC(C)(C)c1nc(C(=O)NCc2ccc(F)cc2)c(O)c(=O)n1CCCNC(=O)C1CC1 [listing 2 of 2 here] |
| 4 | > 20 | CCC(=O)NCCCn1c(C(C)(C)C)nc(C(=O)NCc2ccc(F)cc2)c(O)c1=O [listing 2 of 2 here] |
